Legend:
Format in all cases: cell-based
BRAF D594G = biological target: T1, BRAF D594G (Homo sapiens, UniProt P15056, D594G); test: BRAF HiBiT degradation assay, C-terminal HiBiT-tagged BRAF D594G overexpressed in HCT-116 BRAF−/− cells (clone 63), Nano-Glo HiBiT Lytic assay
T1 construct: Horizon Discovery (HCT-116 BRAF−/− cells); host or cells: HCT-116 BRAF−/− cells, clone 63, lentiviral transduction
How it was run: (§1)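 We quantified degradation of the C-terminally HiBiT-tagged, overexpressed mutant by lytic luminescence, normalizing to DMSO-treated cells with wild-type HCT-116 background subtracted. Dose series ran from 1 μM to 0.01 nM at 0.2% DMSO. Observed Dmax is % degraded at maximal effect.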

BRAF G469A = biological target: T2, BRAF G469A (Homo sapiens, UniProt P15056, G469A); test: BRAF HiBiT degradation assay, C-terminal HiBiT-tagged BRAF G469A overexpressed in HCT-116 BRAF−/− cells (clone 34), Nano-Glo HiBiT Lytic assay
T2 construct: Horizon Discovery (HCT-116 BRAF−/− cells); host or cells: HCT-116 BRAF−/− cells, clone 34, lentiviral transduction
How it was run: as §1

BRAF G466V = biological target: T3, BRAF G466V (Homo sapiens, UniProt P15056, G466V); test: BRAF HiBiT degradation assay, C-terminal HiBiT-tagged BRAF G466V overexpressed in HCT-116 BRAF−/− cells (clone 8), Nano-Glo HiBiT Lytic assay
T3 construct: Horizon Discovery (HCT-116 BRAF−/− cells); host or cells: HCT-116 BRAF−/− cells, clone 8, lentiviral transduction
How it was run: as §1

BRAF V600E = biological target: T4, BRAF V600E (Homo sapiens, UniProt P15056, V600E); test: BRAF HiBiT degradation assay, C-terminal HiBiT-tagged BRAF V600E A375 cells (clone 1F10), Nano-Glo HiBiT Lytic assay; settings: for Dmax: A-375
T4 construct: endogenous C-terminal HiBiT fusion tag on BRAF V600E allele; endogenous in cells; host or cells: A375 clone 1F10 (CRISPR-Cas9 knock-in of the HiBiT tag; parental A375 from ATCC)
How it was run: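 Steps: seed HiBiT-tagged A375 clone 1F10 cells; incubate 24 h, 37 °C, 5% CO2; add compound (11 half-log points from 1 μM, 0.2% DMSO); lyse with HiBiT detection reagent plus LgBiT for 10 min; read luminescence; fit % protein remaining against concentration.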

[1] = BRAF D594G (Class 3), HCT-116 BRAF−/− cells, DC50 at 50% degradation
[2] = BRAF D594G (Class 3), HCT-116 BRAF−/− cells, observed Dmax relative to DMSO control
[3] = BRAF G469A (Class 2), HCT-116 BRAF−/− cells, DC50 at 50% degradation
[4] = BRAF G469A (Class 2), HCT-116 BRAF−/− cells, observed Dmax relative to DMSO control
[5] = BRAF G466V (Class 3), HCT-116 BRAF−/− cells, DC50 at 50% degradation
[6] = BRAF G466V (Class 3), HCT-116 BRAF−/− cells, observed Dmax relative to DMSO control
[7] = A375 (BRAF V600E, Class 1), DC50 at 50% degradation
[8] = A375 (BRAF V600E, Class 1), observed Dmax, % protein degraded relative to DMSO control
[9] = BRAF D594G, DC50 at 50%: fitted conc. at Y=50
[10] = HCT-116, BRAF D594G, percentage protein degraded at maximal compound effect relative to DMSO
[11] = Class 2, BRAF G469A, DC50 at 50%: fitted conc. at Y=50
[12] = HCT-116, Class 2, BRAF G469A, percentage protein degraded at maximal compound effect relative to DMSO
[13] = BRAF G466V, DC50 at 50%: fitted conc. at Y=50
[14] = HCT-116, BRAF G466V, percentage protein degraded at maximal compound effect relative to DMSO
[15] = A375 (BRAF V600E), DC50 at 50%: fitted conc. at Y=50
[16] = A375 (BRAF V600E), percentage protein degraded at maximal compound effect relative to DMSO

T2 sequence (P15056 whole entry G469A): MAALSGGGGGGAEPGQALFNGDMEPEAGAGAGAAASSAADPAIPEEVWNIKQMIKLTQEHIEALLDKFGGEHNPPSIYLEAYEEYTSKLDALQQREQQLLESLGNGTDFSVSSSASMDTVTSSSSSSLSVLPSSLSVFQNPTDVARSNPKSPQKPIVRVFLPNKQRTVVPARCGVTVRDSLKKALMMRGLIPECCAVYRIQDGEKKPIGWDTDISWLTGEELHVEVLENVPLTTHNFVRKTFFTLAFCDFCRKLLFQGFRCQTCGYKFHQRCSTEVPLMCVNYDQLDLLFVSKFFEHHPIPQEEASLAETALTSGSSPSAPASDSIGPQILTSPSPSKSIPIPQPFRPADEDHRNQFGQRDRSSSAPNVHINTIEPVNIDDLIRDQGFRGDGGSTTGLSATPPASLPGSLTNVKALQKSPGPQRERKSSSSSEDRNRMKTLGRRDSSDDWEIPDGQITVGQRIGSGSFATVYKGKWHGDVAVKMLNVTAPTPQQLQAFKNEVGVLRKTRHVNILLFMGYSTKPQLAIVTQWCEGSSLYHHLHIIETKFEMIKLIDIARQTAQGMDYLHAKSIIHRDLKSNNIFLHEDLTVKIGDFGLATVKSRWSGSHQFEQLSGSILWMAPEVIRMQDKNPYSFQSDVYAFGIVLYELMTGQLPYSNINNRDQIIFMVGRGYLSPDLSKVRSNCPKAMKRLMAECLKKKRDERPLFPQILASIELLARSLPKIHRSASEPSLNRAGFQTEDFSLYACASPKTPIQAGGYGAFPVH
T4 sequence (P15056 whole entry V600E, the tested form may be a part): as the sequence (P15056 whole entry G469A) above, with A469G, V600E counted along it
T1 sequence (P15056 whole entry D594G): as the sequence (P15056 whole entry G469A) above, with A469G, D594G counted along it
T3 sequence (P15056 whole entry G466V): as the sequence (P15056 whole entry G469A) above, with G466V, A469G counted along it

Compound	DC50 (BRAF D594G; [1]) [nM]	Dmax (BRAF D594G; [2]) [%]	DC50 (BRAF G469A; [3]) [nM]	Dmax (BRAF G469A; [4]) [%]	DC50 (BRAF G466V; [5]) [nM]	Dmax (BRAF G466V; [6]) [%]	DC50 (BRAF V600E; [7]) [nM]	Dmax (BRAF V600E; [8]) [%]	DC50 (BRAF D594G; [9]) [nM]	Dmax (BRAF D594G; [10]) [%]	DC50 (BRAF G469A; [11]) [nM]	Dmax (BRAF G469A; [12]) [%]	DC50 (BRAF G466V; [13]) [nM]	Dmax (BRAF G466V; [14]) [%]	DC50 (BRAF V600E; [15]) [nM]	Dmax (BRAF V600E; [16]) [%]
O=C1CCC(c2ccc(N3CCC(CN4CCN(c5ccc(-n6cc(-c7cc(Cl)cc(NS(=O)(=O)N8CCCC8)c7F)c(-c7ccncc7)n6)cc5)CC4)CC3)nc2)C(=O)N1 (racemic) [Compound 265, Rac-(R)—N-(5-chloro-3-(1-(4-(4-((1-(5-(2,6-dioxopiperidin-3-yl)pyridin-2-yl)piperidin-4-yl)methyl)piperazin-1-yl)phenyl)-3-(pyridin-4-yl)-1H-pyrazol-4-yl)-2-fluorophenyl)pyrrolidine-1-sulfonamide]	< 10	> 70	< 10	> 70	< 10	> 70	< 10	> 70	–	–	–	–	–	–	–	–
CCN(C)S(=O)(=O)Nc1cccc(-c2nc(C)sc2-c2ccnc(Nc3ccc(N4CCN(CC5CCN(c6ccc(C7CCC(=O)NC7=O)cn6)CC5)CC4)cn3)n2)c1F (racemic) [Compound 43, Rac-(3S)-3-{6-[4-({4-[6-({4-[4-(3-{[ethyl(methyl)sulfamoyl]amino}-2-fluorophenyl)-2-methyl-1,3-thiazol-5-yl]pyrimidin-2-yl}amino)pyridin-3-yl]piperazin-1-yl}methyl)piperidin-1-yl]pyridin-3-yl}piperidine-2,6-dione]	–	–	–	–	–	–	–	–	< 10	30 to 70	10 to 50	30 to 70	10 to 50	30 to 70	< 10	> 70
O=C1CCC(N2C(=O)c3ccc(N4CC(CN5CC(c6ccc(-n7cc(-c8ccc9c(c8)CC/C9=N/O)c(-c8ccncc8)n7)cc6)C5)C4)cc3C2=O)C(=O)N1 (racemic) [Compound 262, Rac-2-[(3R)-2,6-dioxopiperidin-3-yl]-5-(3-{[3-(4-{4-[(1Z)-1-(hydroxyimino)-2,3-dihydro-1H-inden-5-yl]-3-(pyridin-4-yl)-1H-pyrazol-1-yl}phenyl)azetidin-1-yl]methyl}azetidin-1-yl)-2,3-dihydro-1H-isoindole-1,3-dione]	> 500	< 30	> 500	< 30	> 500	< 30	< 10	> 70	–	–	–	–	–	–	–	–
CCN(C)S(=O)(=O)Nc1cccc(-c2nc(C)sc2-c2ccnc(Nc3ccc(N4CCN(CC5CCN(c6ccc([C@H]7CCC(=O)NC7=O)cc6)CC5)CC4)cn3)n2)c1F [Compound 41, (3R)-3-{4-[4-({4-[6-({4-[4-(3-{[ethyl(methyl)sulfamoyl]amino}-2-fluorophenyl)-2-methyl-1,3-thiazol-5-yl]pyrimidin-2-yl}amino)pyridin-3-yl]piperazin-1-yl}methyl)piperidin-1-yl]phenyl}piperidine-2,6-dione]	–	–	–	–	–	–	–	–	10 to 50	30 to 70	10 to 50	30 to 70	50 to 500	30 to 70	< 10	> 70
CCCS(=O)(=O)Nc1cccc(-c2nc(-c3ccc(C4CCN(CC5CCN(c6ccc(C7CCC(=O)NC7=O)cn6)CC5)CC4)cc3)sc2-c2ccnc(N)n2)c1F (racemic) [Compound 208, Rac-N-{3-[5-(2-aminopyrimidin-4-yl)-2-(4-{1-[(1-{5-[(3R)-2,6-dioxopiperidin-3-yl]pyridin-2-yl}piperidin-4-yl)methyl]piperidin-4-yl}phenyl)-1,3-thiazol-4-yl]-2-fluorophenyl}propane-1-sulfonamide]	–	–	–	–	–	–	–	–	> 500	30 to 70	> 500	30 to 70	> 500	30 to 70	10 to 50	> 70
CCCS(=O)(=O)Nc1cccc(-c2nc(C(C)(C)C)sc2-c2ccnc(Nc3ccc(C4CCN(C(=O)CN5CCN(c6cc(C7CCC(=O)NC7=O)ccn6)CC5)CC4)cc3)n2)c1F (racemic) [Compound 174, Rac-N-[3-(2-tert-butyl-5-{2-[(4-{1-[2-(4-{4-[(3R)-2,6-dioxopiperidin-3-yl]pyridin-2-yl}piperazin-1-yl)acetyl]piperidin-4-yl}phenyl)amino]pyrimidin-4-yl}-1,3-thiazol-4-yl)-2-fluorophenyl]propane-1-sulfonamide]	–	–	–	–	–	–	–	–	> 500	< 30	> 500	< 30	> 500	< 30	10 to 50	> 70
CCCS(=O)(=O)Nc1cccc(-c2nc(C(C)(C)C)sc2-c2ccnc(Nc3cccc(OC4CCN(CC[C@@H]5CCN(c6ccc(C7CCC(=O)NC7=O)cn6)C5)CC4)c3)n2)c1F (mixture of isomers) [Compound 70, N-(3-{2-tert-butyl-5-[2-({3-[(1-{2-[(3R)-1-{5-[(3RS)-2,6-dioxopiperidin-3-yl]pyridin-2-yl}pyrrolidin-3-yl]ethyl}piperidin-4-yl)oxy]phenyl}amino)pyrimidin-4-yl]-1,3-thiazol-4-yl}-2-fluorophenyl)propane-1-sulfonamide]	–	–	–	–	–	–	–	–	> 500	30 to 70	> 500	< 30	> 500	< 30	50 to 500	30 to 70
O=C1CC[C@H](c2ccc(N3CCC(CN4CCN(c5cnc(-n6cc(-c7cc(Cl)cc(NS(=O)(=O)N8CCCC8)c7F)c(-c7ccncc7)n6)nc5)CC4)CC3)cc2)C(=O)N1 [Compound 360, N-{5-chloro-3-[1-(5-{4-[(1-{4-[(3R)-2,6-dioxopiperidin-3-yl]phenyl}piperidin-4-yl)methyl]piperazin-1-yl}pyrimidin-2-yl)-3-(pyridin-4-yl)-1H-pyrazol-4-yl]-2-fluorophenyl}pyrrolidine-1-sulfonamide]	< 10	> 70	< 10	30 to 70	< 10	> 70	< 10	> 70	–	–	–	–	–	–	–	–
CCCS(=O)(=O)Nc1cccc(-c2nc(C(C)(C)C)sc2-c2ccnc(Nc3cccc(C4CCN(CC5CCN(c6ccc7c(=O)n(C8CCC(=O)NC8=O)ccc7c6)CC5)CC4)c3)n2)c1F (racemic) [Compound 76, Rac-N-[3-(2-tert-butyl-5-{2-[(3-{1-[(1-{2-[(3R)-2,6-dioxopiperidin-3-yl]-1-oxo-1,2-dihydroisoquinolin-6-yl}piperidin-4-yl)methyl]piperidin-4-yl}phenyl)amino]pyrimidin-4-yl}-1,3-thiazol-4-yl)-2-fluorophenyl]propane-1-sulfonamide]	–	–	–	–	–	–	–	–	> 500	< 30	> 500	< 30	> 500	< 30	10 to 50	30 to 70
O=C1CCC(c2ccc(N3CCC(CN4CCN(c5ccc(-n6cc(-c7cc(F)cc(NS(=O)(=O)N8CC[C@@H](F)C8)c7F)c(-c7ccncc7)n6)nc5)CC4)CC3)nc2)C(=O)N1 (mixture of isomers) [Compound 304, (3R)—N-{3-[1-(5-{4-[(1-{5-[(3RS)-2,6-dioxopiperidin-3-yl]pyridin-2-yl}piperidin-4-yl)methyl]piperazin-1-yl}pyridin-2-yl)-3-(pyridin-4-yl)-1H-pyrazol-4-yl]-2,5-difluorophenyl}-3-fluoropyrrolidine-1-sulfonamide]	< 10	> 70	10 to 50	> 70	< 10	> 70	< 10	> 70	–	–	–	–	–	–	–	–

Source: patent US20260317324A1, “BIFUNCTIONAL COMPOUNDS FOR DEGRADING BRAF VIA UBIQUITIN PROTEOSOME PATHWAY” (Nurix Therapeutics, Inc., priority 2023, published 2026)
